Patent publication US20130040933A1, “AZAINDOLES AS JANUS KINASE INHIBITORS” (priority 2010, published 2013)

Biological target: T1, rhJAK3 (Homo sapiens, UniProt P52333)
T1 construct: recombinant purified GST-tagged catalytic domain for each enzyme; purchased Invitrogen PV3855
Assay: JAK Biochemical HTRF Assay (JAK3)
Details: recombinant purified GST-tagged catalytic domain, HTRF format, [ATP] 1.7 μM; read-out: JAK3 IC50
Method: JAK Biochemical HTRF Assay Protocol
The ability of compounds to inhibit the activity of JAK1, JAK2, JAK3, and TYK2 was measured using a recombinant purified GST-tagged catalytic domain for each enzyme (Invitrogen JAK1 #PV4774, JAK2 #PV4210, JAK3 #PV3855, TYK2 #PV4790) in an HTRF format biochemical assay. The reactions employed a common peptide substrate, LCB-EQEDEPEGDYFEWLW-NH2. The basic assay protocol is as follows: First, […] of diluted compounds in DMSO were dispensed into the wells of a dry 384-well Black plate (Greiner #781076) using a Labcyte Echo 555 acoustic dispenser. Subsequent reagent additions employed a Thermo Multidrop Combi nL. Next, 10 μL of 2× enzyme and 2× substrate in 1× assay buffer (Invitrogen kinase buffer #PV3189, 2 mM DTT, 0.05% BSA) were added to the wells and preincubated for 30 min at room temperature to allow compound binding to equilibrate. After equilibration, 10 μl, of 2×ATP in 1× assay buffer was added to initiate the kinase reaction and the plates were incubated at room temperature for 120 min. At the end of the incubation, 20 μL of 2× stop buffer containing streptavidin-Dylight (Thermo #21845) and Eu-tagged pY20 antibody (Perkin Elmer #AD0067) was added to quench the reaction. Plates were further incubated 60 min at room temperature with shaking and then read on a Perkin Elmer Envision (λex=337 nm, λem=665 and 615 nm, TRF delay time=20 μs). HTRF signal=10,000*665 nm reading/615 nm reading. After normalization to untreated controls, the percent inhibition of the HTRF signal at each compound concentration was calculated. The plot of percent inhibition vs. the log of compound concentration was fit with a 4-parameter dose response equation to calculate IC50 values.

T1 sequence (P52333 822-1111 limits assumed): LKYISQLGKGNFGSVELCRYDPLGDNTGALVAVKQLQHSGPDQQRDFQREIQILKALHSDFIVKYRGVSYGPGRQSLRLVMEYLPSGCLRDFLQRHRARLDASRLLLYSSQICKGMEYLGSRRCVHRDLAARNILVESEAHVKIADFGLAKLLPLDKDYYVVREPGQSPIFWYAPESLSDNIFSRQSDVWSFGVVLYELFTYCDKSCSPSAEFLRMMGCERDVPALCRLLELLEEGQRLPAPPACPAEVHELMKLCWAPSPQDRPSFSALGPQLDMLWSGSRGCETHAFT

Q: Which IC50 does the source give for C[C@@H](Nc1cncc(-c2c[nH]c3ncc(-c4cccc(N5CCCC5)c4)cc23)n1)C(=O)NCC(F)(F)F [Example 15-1, N^2-{6-[5-(3-pyrrolidin-1-ylphenyl)-1H-pyrrolo[2,3-b]pyridin-3-yl]pyrazin-2-yl}-N-(2,2,2-trifluoroethyl)-D-alaninamide] here?
A: Its IC50 is no more than 1 nM.

Q: C[C@@H](Nc1cncc(-c2c[nH]c3ncc(-c4ccc(CC#N)nc4)cc23)n1)C(=O)NCC(F)(F)F [Example 15-2, N^2-(6-{5-[6-(cyanomethyl)pyridin-3-yl]-1H-pyrrolo[2,3-b]pyridin-3-yl}-pyrazin-2-yl)-N-(2,2,2-trifluoroethyl)-D-alaninamide] was tested. Which IC50 did it give?
A: The IC50 was no more than 1 nM.

Q: C[C@@H](Nc1cncc(-c2c[nH]c3ncc(-c4ccc(C(O)C(F)(F)F)cc4)cc23)n1)C(=O)NCC(F)(F)F (stereo partly drawn) [Example 15-3, N-(2,2,2-trifluoroethyl)-N^2-(6-{5-[4-(2,2,2-trifluoro-1-hydroxyethyl)phenyl]-1H-pyrrolo[2,3-b]pyridin-3-yl}pyrazin-2-yl)-D-alaninamide] was tested. Which IC50 did it give?
A: The IC50 was no more than 1 nM.

Q: For C[C@@H](Nc1cncc(-c2c[nH]c3ncc(/C=C/CN(C)C)cc23)n1)C(=O)NCC(F)(F)F [Example 15-4, N^2-(6-{5-[(1E)-3-(dimethylamino)prop-1-en-1-yl]-1H-pyrrolo[2,3-b]pyridin-3-yl}pyrazin-2-yl)-N-(2,2,2-trifluoro-ethyl)-D-alaninamide], which IC50 is on record?
A: The IC50 was 1 to 10 nM.

Q: C[C@@H](Nc1cncc(-c2c[nH]c3ncc(-c4ccnn4C)cc23)n1)C(=O)NCC(F)(F)F [Example 15-5, N^2-{6-[5-(1-methyl-1H-pyrazol-5-yl)-1H-pyrrolo[2,3-b]pyridin-3-yl]pyrazin-2-yl}-N-(2,2,2-trifluoroethyl)-D-alaninamide] was tested. Which IC50 did it give?
A: The IC50 was 1 to 10 nM.

Q: With C[C@@H](Nc1cncc(-c2c[nH]c3ncc(-c4cnc(N)nc4)cc23)n1)C(=O)NCC(F)(F)F [Example 15-6, N^2-{6-[5-(2-aminopyrimidin-5-yl)-1H-pyrrolo[2,3-b]pyridin-3-yl]pyrazin-2-yl}-N-(2,2,2-trifluoroethyl)-D-alaninamide] as the compound, how does the IC50 read?
A: Its IC50 is no more than 1 nM.

Q: How did the IC50 turn out when COCC#Cc1cnc2[nH]cc(-c3cncc(N[C@H](C)C(=O)NCC(F)(F)F)n3)c2c1 [Example 15-7, N^2-{6-[5-(3-methoxyprop-1-yn-1-yl)-1H-pyrrolo[2,3-b]pyridin-3-yl]pyrazin-2-yl}-N-(2,2,2-trifluoroethyl)-D-alaninamide] was run?
A: Its IC50 is no more than 1 nM.

Same assay, conditions: recombinant purified GST-tagged catalytic domain, HTRF format, [ATP] 1.7 μM; read-out: rhJAK3 IC50

Q: CC(C)(C)C(=O)N1CCN(c2cncc(-c3c[nH]c4ncc(Cl)cc34)n2)[C@@H](C(=O)NCC(F)(F)F)C1 [Example 4-3, (2R)-1-[6-(5-chloro-1H-pyrrolo[2,3-b]-pyridin-3-yl)pyrazin-2-yl]-4-(2,2-dimethylpropanoyl)-N-(2,2,2-trifluoro-ethyl)piperazine-2-carboxamide] was tested. Which IC50 did it give?
A: Its IC50 is 10 to 100 nM.

Q: Which IC50 does the source give for O=C(Cn1ccc2ncc(-c3c[nH]c4ncc(Cl)cc34)nc21)NCC(F)(F)F [Example 5, 2-[3-(5-Chloro-1H-pyrrolo[2,3-b]pyridin-3-yl)-5H-pyrrolo[2,3-b]pyrazin-5-yl]-N-(2,2,2-trifluoroethyl)acetamide] here?
A: Its IC50 is 10 to 100 nM.

Q: O=C(NCC(F)(F)F)C1(Oc2cncc(-c3c[nH]c4ncc(Cl)cc34)n2)CC1 [Example 6, 1-{[6-(5-Chloro-1H-pyrrolo[2,3-b]pyridin-3-yl)pyrazin-2-yl]oxy}-N-(2,2,2-trifluoroethyl)-cyclopropanecarboxamide] was tested. Which IC50 did it give?
A: Its IC50 is 1 to 10 nM.

Q: NC(=O)C1(Oc2cncc(-c3c[nH]c4ncc(Cl)cc34)n2)CC1 [Example 6-1, 1-{[6-(5-chloro-1H-pyrrolo[2,3-b]pyridin-3-yl)pyrazin-2-yl]oxy}cyclopropane-carboxamide] was tested. Which IC50 did it give?
A: Its IC50 is 1 to 10 nM.

Q: CN(C)C(=O)C1(Oc2cncc(-c3c[nH]c4ncc(Cl)cc34)n2)CC1 [Example 6-2, 1-{[6-(5-chloro-1H-pyrrolo[2,3-b]pyridin-3-yl)pyrazin-2-yl]oxy}-N,N-dimethyl-cyclopropanecarboxamide] was tested. Which IC50 did it give?
A: The IC50 was 1 to 10 nM.

Q: How did the IC50 turn out when O=C(NCCC(F)(F)F)C1(Oc2cncc(-c3c[nH]c4ncc(Cl)cc34)n2)CC1 [Example 6-3, 1-{[6-(5-chloro-1H-pyrrolo[2,3-b]pyridin-3-yl)pyrazin-2-yl]oxy}-N-(3,3,3-trifluoro-propyl)cyclopropanecarboxamide] was run?
A: The IC50 was 100 to 1000 nM.

Q: Which IC50 does the source give for C[C@H](Oc1cncc(-c2c[nH]c3ncc(Cl)cc23)n1)C(=O)NCC(F)(F)F [Example 6-4, 2(S) 2-{[6-(5-chloro-1H-pyrrolo[2,3-b]pyridin-3-yl)pyrazin-2-yl]oxy}-N-(2,2,2-trifluoroethyl)propanamide] here?
A: Its IC50 is 1 to 10 nM.

Q: O=C(NCC(F)(F)F)c1cncc(-c2c[nH]c3ncc(Cl)cc23)n1 [Example 7, 6-(5-chloro-1H-pyrrolo[2,3-b]pyridin-3-yl)-N-(2,2,2-trifluoroethyl)pyrazine-2-carboxamide] was tested. Which IC50 did it give?
A: The IC50 was 100 to 1000 nM.

Q: For O=C(NCC(F)(F)F)[C@H]1CNCCN1C(=O)c1cncc(-c2c[nH]c3ncc(Cl)cc23)n1 [Example 7-1, (2R)-1-{[6-(5-chloro-1H-pyrrolo[2,3-b]pyridin-3-yl)-pyrazin-2-yl]carbonyl}-N-(2,2,2-trifluoroethyl)piperazine-2-carboxamide], which IC50 is on record?
A: Its IC50 is 100 to 1000 nM.

Q: Which IC50 does the source give for O=C(Cc1cncc(-c2c[nH]c3ncc(Cl)cc23)n1)NCC(F)(F)F [Example 8, 2-[6-(5-chloro-1H-pyrrolo[2,3-b]pyridin-3-yl)pyrazin-2-yl]-N-(2,2,2-trifluoroethyl)acetamide] here?
A: Its IC50 is 10 to 100 nM.

Q: With O=C(Cc1cncc(-c2c[nH]c3ncc(Cl)cc23)n1)N1CCOCC1 [Example 8-1, 5-chloro-3-[6-(2-morpholin-4-yl-2-oxoethyl)pyrazin-2-yl]-1H-pyrrolo-[2,3-b]pyridine] as the compound, how does the IC50 read?
A: The IC50 was 100 to 1000 nM.

Q: With N#CCCNC(=O)Cc1cncc(-c2c[nH]c3ncc(Cl)cc23)n1 [Example 8-2, 2-[6-(5-chloro-1H-pyrrolo[2,3-b]-pyridin-3-yl)pyrazin-2-yl]-N-(2-cyanoethyl) acetamide] as the compound, how does the IC50 read?
A: Its IC50 is 100 to 1000 nM.

Q: With O=C(Cc1cncc(-c2c[nH]c3ncc(Cl)cc23)n1)NCCC(F)(F)F [Example 8-3, 2-[6-(5-chloro-1H-pyrrolo[2,3-b]-pyridin-3-yl)pyrazin-2-yl]-N-(3,3,3-trifluoropropyl) acetamide] as the compound, how does the IC50 read?
A: The IC50 was 10 to 100 nM.

Q: How did the IC50 turn out when N#CCNC(=O)Cc1cncc(-c2c[nH]c3ncc(Cl)cc23)n1 [Example 8-4, 2-[6-(5-chloro-1H-pyrrolo[2,3-b]-pyridin-3-yl)pyrazin-2-yl]-N-(cyanomethyl)acetamide] was run?
A: Its IC50 is 10 to 100 nM.

Q: Which IC50 does the source give for C/C(=C\c1cncc(-c2c[nH]c3ncc(Cl)cc23)n1)C(=O)NCC(F)(F)F [Example 9, (2E)-3-[6-(5-chloro-1H-pyrrolo[2,3-b]pyridin-3-yl)pyrazin-2-yl]-2-methyl-N-(2,2,2-trifluoro-ethyl)prop-2-enamide] here?
A: Its IC50 is 10 to 100 nM.

Q: How did the IC50 turn out when O=C(NCC(F)(F)F)c1ccc(-c2cncc(-c3c[nH]c4ncc(Cl)cc34)n2)cc1 [Example 10, 4-[6-(5-Chloro-1H-pyrrolo[2,3-b]pyridin-3-yl)pyrazin-2-yl]-N-(2,2,2-trifluoroethyl)benzamide] was run?
A: Its IC50 is 100 to 1000 nM.

Q: Which IC50 does the source give for O=C(NCC(F)(F)F)C1=C(c2cncc(-c3c[nH]c4ncc(Cl)cc34)n2)CCC1 [Example 10-1, 2-[6-(5-chloro-1H-pyrrolo[2,3-b]pyridin-3-yl)pyrazin-2-yl]-N-(2,2,2-trifluoroethyl)cyclopent-1-ene-1-carboxamide] here?
A: The IC50 was 1 to 10 nM.

Q: With CC1(C(=O)NCC(F)(F)F)CC1c1cncc(-c2c[nH]c3ncc(Cl)cc23)n1 (stereo not drawn) [Example 10-2, 2-[6-(5-chloro-1H-pyrrolo[2,3-b]pyridin-3-yl)pyrazin-2-yl]-1-methyl-N-(2,2,2-trifluoroethyl)cyclopropanecarboxamide] as the compound, how does the IC50 read?
A: Its IC50 is 1 to 10 nM.

Q: For CC(Cc1cncc(-c2c[nH]c3ncc(Cl)cc23)n1)C(=O)NCC(F)(F)F (stereo not drawn) [Example 11, 3-[6-(5-chloro-1H-pyrrolo[2,3-b]pyridin-3-yl)pyrazin-2-yl]-2-methyl-N-(2,2,2-trifluoroethyl)-propanamide], which IC50 is on record?
A: Its IC50 is 10 to 100 nM.

Q: Which IC50 does the source give for O=C(CCc1cncc(-c2c[nH]c3ncc(Cl)cc23)n1)NCC(F)(F)F [Example 12, 3-[6-(5-chloro-1H-pyrrolo[2,3-b]pyridin-3-yl)pyrazin-2-yl]-N-(2,2,2-trifluoroethyl)propanamide] here?
A: Its IC50 is 10 to 100 nM.

Q: For C[C@@H](Nc1cncc(-c2c[nH]c3ncc(C4CC4)cc23)n1)C(=O)NCC(F)(F)F [Example 13, N^2-[6-(5-cyclopropyl-1H-pyrrolo[2,3-b]pyridin-3-yl)pyrazin-2-yl]-N-(2,2,2-trifluoroethyl)-D-alaninamide], which IC50 is on record?
A: The IC50 was no more than 1 nM.

Q: For C[C@@H](Nc1cncc(-c2c[nH]c3ncc(-c4cnn(C)c4)cc23)n1)C(=O)NCC(F)(F)F [Example 14, N^2-{6-[5-(1-methyl-1H-pyrazol-4-yl)-1H-pyrrolo[2,3-b]pyridin-3-yl]pyrazin-2-yl}-N-(2,2,2-trifluoroethyl)-D-alaninamide], which IC50 is on record?
A: The IC50 was no more than 1 nM.

Q: For Cc1cnc2[nH]cc(-c3cncc(N[C@H](C)C(=O)NCC(F)(F)F)n3)c2c1 [Example 15, N2-[6-(5-methyl-1H-pyrrolo[2,3-b]pyridin-3-yl)pyrazin-2-yl]-N-(2,2,2-trifluoroethyl)-D-alaninamide], which IC50 is on record?
A: The IC50 was 1 to 10 nM.
